# From EP4226916A1, “LIPID NANOPARTICLE COMPRISING PHOSPHATIDYLSERINE” (Universität Basel, priority 2022, dated 2023)
# System: cellular uptake of PS-LNPs and LNPs
# Test: Cellular uptake inhibition experiments
# Assay type: cell-based
# Conditions: at least 50% inhibition considered significant
# Source text: To elucidate mechanisms of cellular uptake and intracellular processing in the presence and absence of PS, we conducted a series of cellular uptake inhibition experiments. An arbitrary threshold of at least 50% inhibition was considered to be significant.
SMILES,inhibition of uptake of LNPs (without PS),inhibition of uptake of PS-LNPs
COc1cc2c(c(OC)c1OC)-c1ccc(OC)c(=O)cc1[C@@H](NC(C)=O)CC2 [Colchicine],specifically inhibited,specifically inhibited
CN(C)CCCN1c2ccccc2Sc2ccc(Cl)cc21 [Chlorpromazine],,specifically inhibited
O=C(N/N=C/c1ccc(O)c(O)c1)c1cc2ccccc2cc1O [Dynasore],specifically inhibited,specifically inhibited
